One experiment has as its system HeLa cells. As to the kind of experiment: Proliferation assay, HeLa. The class given is cell-based. The note with it: Homo sapiens, 96 h, read-out: Inhibition of HeLa cell proliferation IC50. As for the experimental part:
(§1) After 24 hours, the cells of one plate (zero-point plate) were stained with crystal violet (see below), while the medium of the other plates was replaced by fresh culture medium (200 μl), to which the test substances were added in various concentrations (0 μM, as well as in the range of 0.001-10 μM; the final concentration of the solvent dimethyl sulfoxide was 0.5%). The cells were incubated for 4 days in the presence of test substances. Cell proliferation was determined by staining the cells with crystal violet: the cells were fixed by adding 20 μl/measuring point of an 11% glutaric aldehyde solution for 15 minutes at room temperature. After three washing cycles of the fixed cells with water, the plates were dried at room temperature. The cells were stained by adding 100 μl/measuring point of a 0.1% crystal violet solution (pH 3.0). After three washing cycles of the stained cells with water, the plates were dried at room temperature. The dye was dissolved by adding 100 μl/measuring point of a 10% acetic acid solution. […] The change of cell number, in percent, was calculated by normalization of the measured values to the extinction values of the zero-point plate (=0%) and the extinction of the untreated (0 μm) cells (=100%).

Another experiment deals with CDK2/CycE (Homo sapiens, UniProt P24941). As to the kind of experiment: CDK2/CycE kinase assay (TR-FRET, Method 2). On the technique in general: TR-FRET usually uses a lanthanide donor and a delayed reading to cut background.
Experiment [1] concerns the target T1, CDK9/CycT1 (Homo sapiens, UniProt P50750). As to the kind of experiment: CDK9/CycT1 kinase assay (TR-FRET, Method 1a).
Excerpt: CDK9/CycT1-inhibitory activity of compounds of the present invention was quantified employing the CDK9/CycT1 TR-FRET assay as described in the following paragraphs:
Recombinant full-length His-tagged human CDK9 and CycT1, expressed in insect cells and purified by Ni-NTA affinity chromatography, were purchased from Invitrogen (Cat. No PV4131). As substrate for the kinase reaction biotinylated peptide biotin-Ttds-[sequence] (C-terminus in amid form) was used which can be purchased e.g. form the company JERINI Peptide Technologies (Berlin, Germany).
For the assay 50 nl of a 100 fold concentrated solution of the test compound in DMSO was pipetted into a black low volume 384 well microtiter plate (Greiner Bio-One, Frickenhausen, Germany), 2 μl of a solution of CDK9/CycT1 in aqueous assay buffer [50 mM Tris/HCl pH 8.0, 10 mM MgCl2, 1.0 mM dithiothreitol, 0.1 mM sodium ortho-vanadate, 0.01% (v/v) Nonidet-P40 (Sigma)] were added and the mixture was incubated for 15 min at 22° C. to allow pre-binding of the test compounds to the enzyme before the start of the kinase reaction. Then the kinase reaction was started by the addition of 3 μl of a solution of adenosine-tri-phosphate (ATP, 16.7 μM=>final conc. in the 5 μl assay volume is 10 μM) and substrate (1.67 μM=>final conc. in the 5 μl assay volume is 1 μM) in assay buffer and the resulting mixture was incubated for a reaction time of 25 min at 22° C. The concentration of CDK9/CycT1 was adjusted depending of the activity of the enzyme lot and was chosen appropriate to have the assay in the linear range, typical concentrations were in the range of 1 μg/mL. The reaction was stopped by the addition of 5 μl of a solution of TR-FRET detection reagents (0.2 μM streptavidine-XL665 [Cisbio Bioassays, Codolet, France] and 1 nM anti-RB(pSer807/pSer811)-antibody from BD Pharmingen [#558389] and 1.2 nM LANCE EU-W1024 labeled anti-mouse IgG antibody [Perkin-Elmer, product no. AD0077]) in an aqueous EDTA-solution (100 mM EDTA, 0.2% (w/v) bovine serum albumin in 100 mM HEPES/NaOH pH 7.0).
(§2) The resulting mixture was incubated 1 h at 22° C. to allow the formation of complex between the phosphorylated biotinylated peptide and the detection reagents. Subsequently the amount of phosphorylated substrate was evaluated by measurement of the resonance energy transfer from the Eu-chelate to the streptavidine-XL. Therefore, the fluorescence emissions at 620 nm and 665 nm after excitation at 350 nm was measured in a HTRF reader, e.g. a Rubystar (BMG Labtechnologies, Offenburg, Germany) or a Viewlux (Perkin-Elmer). The ratio of the emissions at 665 nm and at 622 nm was taken as the measure for the amount of phosphorylated substrate.
Experiment [2] has as its target T1, CDK9/CycT1.
Description: CDK9/CycT1 High ATP Kinase Assay
CDK9/CycT1-inhibitory activity of compounds of the present invention at a high ATP concentration after preincubation of enzyme and test compounds was quantified employing the CDK9/CycT1 TR-FRET assay as described in the following paragraphs.
Recombinant full-length His-tagged human CDK9 and CycT1, expressed in insect cells and purified by Ni-NTA affinity chromatography, were purchase from Invitrogen (Cat. No PV4131). As substrate for the kinase reaction biotinylated peptide biotin-Ttds-[sequence]
For the assay 50 nl of a 100 fold concentrated solution of the test compound in DMSO was pipetted into a black low volume 384 well microtiter plate (Greiner Bio-One, Frickenhausen, Germany), 2 μl of a solution of CDK9/CycT1 in aqueous assay buffer [50 mM Tris/HCl pH 8.0, 10 mM MgCl2, 1.0 mM dithiothreitol, 0.1 mM sodium ortho-vanadate, 0.01% (v/v) Nonidet-P40 (Sigma)] were added and the mixture was incubated for 15 min at 22° C. to allow pre-binding of the test compounds to the enzyme before the start of the kinase reaction. Then the kinase reaction was started by the addition of 3 μl of a solution of adenosine-tri-phosphate (ATP, 3.3 mM=>final conc. in the 5 μl assay volume is 2 mM) and substrate (1.67 μM=>final conc. in the 5 μl assay volume is 1 μM) in assay buffer and the resulting mixture was incubated for a reaction time of 25 min at 22° C. The concentration of CDK9/CycT1 was adjusted depending of the activity of the enzyme lot and was chosen appropriate to have the assay in the linear range, typical concentrations were in the range of 0.5 μg/mL. The reaction was stopped by the addition of 5 μl of a solution of TR-FRET detection reagents (0.2 μM streptavidine-XL665 [Cisbio Bioassays, Codolet, France] and 1 nM anti-RB(pSer807/pSer811)-antibody from BD Pharmingen [#558389] and 1.2 nM LANCE EU-W1024 labeled anti-mouse IgG antibody [Perkin-Elmer, product no. AD0077]) in an aqueous EDTA-solution (100 mM EDTA, 0.2% (w/v) bovine serum albumin in 100 mM HEPES/NaOH pH 7.0).
as §2
For the next experiment, the system named is HeLa-MaTu-ADR cells. Description: Proliferation assay, HeLa-MaTu-ADR. As to conditions: Homo sapiens, 96 h, read-out: Inhibition of HeLa-MaTu-ADR cell proliferation IC50. The class given is cell-based. Here is the method:
as §1

The subject of the next experiment is NCI-H460 cells. Description: Proliferation assay, NCI-H460. The class given is cell-based. As to conditions: Homo sapiens, read-out: Inhibition of NCI-H460 cell proliferation IC50. Here is the method: as §1
A further experiment deals with DU145 cells. Description: Proliferation assay, DU145. The class given is cell-based. As to conditions: Homo sapiens, DU-145, 96 h, read-out: Inhibition of DU145 cell proliferation IC50. Here is the method:
as §1

The test system of another experiment is Caco-2 cells. Description: Proliferation assay, Caco-2. It is filed as cell-based. The note with it: Homo sapiens, read-out: Inhibition of Caco-2 cell proliferation IC50. As for the experimental part:
as §1

The test system of the next experiment is B16F10 cells. As to the kind of experiment: Proliferation assay, B16F10. The class given is cell-based. The note with it: Mus musculus, B16-F10, 96 h, read-out: Inhibition of B16F10 cell proliferation IC50. Here is the method: as §1
Setting [3] is: HeLa-MaTu-ADR, 4 days, crystal violet.
[4] abbreviates: 96 h, NCI-H460, 4 days, crystal violet.
The mark [5] stands for this setting: 96 h, Caco-2, 4 days, crystal violet.

Read-outs that look alike come from different tables or passages of the source.

T1 sequence (P50750 whole entry): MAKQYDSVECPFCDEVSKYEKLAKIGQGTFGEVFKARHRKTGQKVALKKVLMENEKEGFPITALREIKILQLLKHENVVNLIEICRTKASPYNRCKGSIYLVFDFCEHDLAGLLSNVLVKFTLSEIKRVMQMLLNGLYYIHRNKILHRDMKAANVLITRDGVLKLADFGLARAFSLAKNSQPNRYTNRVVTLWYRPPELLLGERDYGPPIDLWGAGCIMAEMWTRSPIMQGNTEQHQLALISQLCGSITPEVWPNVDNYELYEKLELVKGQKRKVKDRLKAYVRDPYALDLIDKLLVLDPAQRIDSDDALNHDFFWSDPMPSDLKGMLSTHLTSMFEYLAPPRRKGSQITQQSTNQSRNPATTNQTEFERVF
T1 sequence (O60563 whole entry partner): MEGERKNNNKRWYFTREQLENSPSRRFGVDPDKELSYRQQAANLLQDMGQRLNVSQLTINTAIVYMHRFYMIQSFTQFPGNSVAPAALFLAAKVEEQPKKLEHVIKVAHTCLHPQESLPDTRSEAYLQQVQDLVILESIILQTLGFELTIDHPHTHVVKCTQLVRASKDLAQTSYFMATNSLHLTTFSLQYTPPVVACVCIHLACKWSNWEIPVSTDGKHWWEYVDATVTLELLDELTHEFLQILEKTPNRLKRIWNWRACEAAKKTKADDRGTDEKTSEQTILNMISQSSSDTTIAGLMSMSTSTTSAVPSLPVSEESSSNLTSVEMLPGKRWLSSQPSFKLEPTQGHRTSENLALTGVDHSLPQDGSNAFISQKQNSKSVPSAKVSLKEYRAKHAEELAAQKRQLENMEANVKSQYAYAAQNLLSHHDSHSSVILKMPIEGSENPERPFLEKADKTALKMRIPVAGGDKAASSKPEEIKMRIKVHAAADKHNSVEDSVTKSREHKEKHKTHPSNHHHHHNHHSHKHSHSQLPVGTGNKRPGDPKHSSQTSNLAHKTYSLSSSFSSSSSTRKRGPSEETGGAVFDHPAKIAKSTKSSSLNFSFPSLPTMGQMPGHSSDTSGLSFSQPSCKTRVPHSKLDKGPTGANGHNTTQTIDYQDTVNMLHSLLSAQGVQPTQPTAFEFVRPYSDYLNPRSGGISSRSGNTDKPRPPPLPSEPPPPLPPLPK
Excerpt for CDK2/CycE: CDK2/CycE-inhibitory activity of compounds of the present invention was quantified employing the CDK2/CycE TR-FRET assay as described in the following paragraphs:
Recombinant fusion proteins of GST and human CDK2 and of GST and human CycE, expressed in insect cells (Sf9) and purified by Glutathion-Sepharose affinity chromatography, were purchased from ProQinase GmbH (Freiburg, Germany). As substrate for the kinase reaction biotinylated peptide biotin-Ttds-[sequence] (C-terminus in amid form) was used which can be purchased e.g. form the company JERINI Peptide Technologies (Berlin, Germany).
For the assay 50 nl of a 100 fold concentrated solution of the test compound in DMSO was pipetted into a black low volume 384 well microtiter plate (Greiner Bio-One, Frickenhausen, Germany), 2 μl of a solution of CDK2/CycE in aqueous assay buffer [50 mM Tris/HCl pH 8.0, 10 mM MgCl2, 1.0 mM dithiothreitol, 0.1 mM sodium ortho-vanadate, 0.01% (v/v) Nonidet-P40 (Sigma)] were added and the mixture was incubated for 15 min at 22° C. to allow pre-binding of the test compounds to the enzyme before the start of the kinase reaction. Then the kinase reaction was started by the addition of 3 μl of a solution of adenosine-tri-phosphate (ATP, 16.7 μM=>final conc. in the 5 μl assay volume is 10 μM) and substrate (1.25 μM=>final conc. in the 5 μl assay volume is 0.75 μM) in assay buffer and the resulting mixture was incubated for a reaction time of 25 min at 22° C. The concentration of CDK2/CycE was adjusted depending of the activity of the enzyme lot and was chosen appropriate to have the assay in the linear range, typical concentrations were in the range of 130 ng/mL. The reaction was stopped by the addition of 5 μl of a solution of TR-FRET detection reagents (0.2 μM streptavidine-XL665 [Cisbio Bioassays, Codolet, France] and 1 nM anti-RB(pSer807/pSer811)-antibody from BD Pharmingen [#558389] and 1.2 nM LANCE EU-W1024 labeled anti-mouse IgG antibody [Perkin-Elmer, product no. AD0077]) in an aqueous EDTA-solution (100 mM EDTA, 0.2% (w/v) bovine serum albumin in 100 mM HEPES/NaOH pH 7.0).
The resulting mixture was incubated 1 h at 22° C. to allow the formation of complex between the phosphorylated biotinylated peptide and the detection reagents. Subsequently the amount of phosphorylated substrate was evaluated by measurement of the resonance energy transfer from the Eu-chelate to the streptavidine-XL. Therefore, the fluorescence emissions at 620 nm and 665 nm after excitation at 350 nm was measured in a TR-FRET reader, e.g. a Rubystar (BMG Labtechnologies, Offenburg, Germany) or a Viewlux (Perkin-Elmer). The ratio of the emissions at 665 nm and at 622 nm was taken as the measure for the amount of phosphorylated substrate.

As to `CS(=O)(=O)Cc1cc(F)cc(Nc2ncc(F)c(-c3ccc(F)cc3OCc3ccccc3)n2)c1` [Example 11, 4-[2-(Benzyloxy)-4-fluorophenyl]-5-fluoro-N-{3-fluoro-5-[(methylsulfonyl)methyl]phenyl}pyrimidin-2-amine], the IC50 is 1000 nM in the experiment with HeLa cells (4 days, crystal violet) and 1100 nM against CDK2/CycE.

Turning to `COc1cc(F)ccc1-c1nc(Nc2cccc(CS(=O)(=O)C3CC3)c2)ncc1F` [Example 14, N-{3-[(Cyclopropylsulfonyl)methyl]phenyl}-5-fluoro-4-(4-fluoro-2-methoxyphenyl)pyrimidin-2-amine], the IC50 in the experiment with HeLa cells (4 days, crystal violet) is 670 nM; at CDK2/CycE, 780 nM; against CDK9/CycT1 [1] it was 8 nM; against CDK9/CycT1 [2], 40 nM.

`O=S(=O)(Cc1cccc(Nc2ncc(F)c(-c3ccc(F)cc3OCc3ccccc3)n2)c1)C1CCCCC1` [Example 6, 4-[2-(Benzyloxy)-4-fluorophenyl]-N-{3-[(cyclohexylsulfonyl)methyl]phenyl}-5-fluoropyrimidin-2-amine]: the results for the IC50 at CDK2/CycE, against CDK9/CycT1 [1] and on CDK9/CycT1 [2] were at least 20000 nM, 51 nM and 98 nM, respectively.

With `CS(=O)(=O)Cc1cccc(Nc2ncc(F)c(-c3ccc(F)cc3OCc3ccccc3)n2)c1` [Example 2, 4-[2-(Benzyloxy)-4-fluorophenyl]-5-fluoro-N-{3-[(methylsulfonyl)methyl]phenyl}pyrimidin-2-amine], the IC50 with HeLa cells (4 days, crystal violet) was 350 nM; in the experiment with HeLa-MaTu-ADR cells (setting [3]), 300 nM; in the experiment with NCI-H460 cells (setting [4]), 370 nM; in the experiment on DU145 cells (DU145, 4 days, crystal violet), 410 nM; in the experiment on Caco-2 cells (setting [5]) it was 490 nM; with B16F10 cells (B16F10, 4 days, crystal violet) it was 820 nM. For the same compound, the IC50 against CDK2/CycE turned out to be 840 nM; on CDK9/CycT1 [1], 8 nM; against CDK9/CycT1 [2], 8 nM.

With `CC(C)S(=O)(=O)Cc1cccc(Nc2ncc(F)c(-c3ccc(F)cc3OCc3ccccc3)n2)c1` [Example 5, 4-[2-(Benzyloxy)-4-fluorophenyl]-5-fluoro-N-{3-[(propan-2-ylsulfonyl)methyl]phenyl}pyrimidin-2-amine], the IC50 at CDK2/CycE stood at 1600 nM; at CDK9/CycT1 [1], 14 nM; against CDK9/CycT1 [2], 20 nM.

With `O=S(=O)(Cc1cccc(Nc2ncc(F)c(-c3cccc4c3OCCC4)n2)c1)C1CC1` [Example 10, N-{3-[(Cyclopropylsulfonyl)methyl]phenyl}-4-(3,4-dihydro-2H-chromen-8-yl)-5-fluoropyrimidin-2-amine], the IC50 with HeLa cells (4 days, crystal violet) came to 1100 nM; against CDK2/CycE, 210 nM.

`COc1cc(F)ccc1-c1nc(Nc2cccc(CS(=O)(=O)Cc3ccccc3)c2)ncc1F` [Example 15, N-{3-[(Benzylsulfonyl)methyl]phenyl}-5-fluoro-4-(4-fluoro-2-methoxyphenyl)-pyrimidin-2-amine]: the IC50 in the experiment with HeLa cells (4 days, crystal violet) turned out to be 1800 nM; on CDK2/CycE it was 1100 nM; against CDK9/CycT1 [1], 10 nM; at CDK9/CycT1 [2], 83 nM.

Turning to `COc1cc(F)ccc1-c1nc(Nc2cccc(CS(=O)(=O)CCO)c2)ncc1F` [Example 8, 2-[(3-{[5-Fluoro-4-(4-fluoro-2-methoxyphenyl)pyrimidin-2-yl]amino}benzyl)sulfonyl]ethanol], the IC50 in the experiment with HeLa cells (4 days, crystal violet) was 1000 nM; with HeLa-MaTu-ADR cells (setting [3]), 380 nM; in the experiment with NCI-H460 cells (setting [4]), 710 nM; with DU145 cells (DU145, 4 days, crystal violet) it was 640 nM; in the experiment on Caco-2 cells (setting [5]), 710 nM; in the experiment with B16F10 cells (B16F10, 4 days, crystal violet), 950 nM. Further, the IC50 against CDK2/CycE was 310 nM; against CDK9/CycT1 [1], 9 nM; against CDK9/CycT1 [2] it was 103 nM.

On to `CS(=O)(=O)Cc1cccc(Nc2ncc(F)c(-c3cccc4c3OCCO4)n2)c1` [Example 13, 4-(2,3-Dihydro-1,4-benzodioxin-5-yl)-5-fluoro-N-{3-[(methylsulfonyl)methyl]phenyl}pyrimidin-2-amine], for which the IC50 is 210 nM in the experiment with HeLa cells; 190 nM in the experiment with HeLa-MaTu-ADR cells; 340 nM with NCI-H460 cells (NCI-H460, 96 h); 310 nM in the experiment on DU145 cells; 220 nM with Caco-2 cells (Caco-2, 96 h); 510 nM in the experiment on B16F10 cells. Also, the IC50 against CDK2/CycE came to 120 nM; at CDK9/CycT1 [1], 6 nM; against CDK9/CycT1 [2], 5 nM.

Consider `CS(=O)(=O)Cc1cccc(Nc2ncc(F)c(-c3ccc(F)cc3OCc3cccnc3)n2)c1` [Example 16, 5-Fluoro-4-[4-fluoro-2-(pyridin-3-ylmethoxy)phenyl]-N-{3-[(methylsulfonyl)methyl]phenyl}pyrimidin-2-amine], for which the IC50 turned out to be 380 nM with HeLa cells (4 days, crystal violet); 350 nM in the experiment with HeLa-MaTu-ADR cells (setting [3]); 320 nM in the experiment with NCI-H460 cells (setting [4]); 300 nM in the experiment with DU145 cells (DU145, 4 days, crystal violet); 440 nM in the experiment on Caco-2 cells (setting [5]); 410 nM in the experiment on B16F10 cells (B16F10, 4 days, crystal violet). For the same compound, the IC50 against CDK2/CycE came out at 820 nM; against CDK9/CycT1 [1], 8 nM; at CDK9/CycT1 [2], 19 nM.

Turning to `COc1cc(F)ccc1-c1nc(Nc2cccc(CS(=O)(=O)C(C)C)c2)ncc1F` [Example 7, 5-Fluoro-4-(4-fluoro-2-methoxyphenyl)-N-{3-[(propan-2-ylsulfonyl)methyl]phenyl}pyrimidin-2-amine], the IC50 in the experiment with HeLa cells (4 days, crystal violet) stood at 1100 nM; against CDK2/CycE it was 510 nM.

For the compound `COCCS(=O)(=O)Cc1cccc(Nc2ncc(F)c(-c3ccc(F)cc3OCc3ccccc3)n2)c1` [Example 3, 4-[2-(Benzyloxy)-4-fluorophenyl]-5-fluoro-N-(3-{[(2-methoxyethyl)sulfonyl]methyl}phenyl)pyrimidin-2-amine], the IC50 in the experiment on HeLa cells (4 days, crystal violet) is 1200 nM; in the experiment on HeLa-MaTu-ADR cells (setting [3]), 1000 nM; with NCI-H460 cells (setting [4]) it was 1200 nM; in the experiment with DU145 cells (DU145, 4 days, crystal violet), 1300 nM; with Caco-2 cells (setting [5]), 1100 nM; in the experiment with B16F10 cells (B16F10, 4 days, crystal violet) it was 1200 nM. Besides, the IC50 was found to be 1200 nM against CDK2/CycE, 10 nM against CDK9/CycT1 [1] and 10 nM at CDK9/CycT1 [2].

Regarding `CC(C)(C)S(=O)(=O)Cc1cccc(Nc2ncc(F)c(-c3ccc(F)cc3OCc3ccccc3)n2)c1` [Example 4, 4-[2-(Benzyloxy)-4-fluorophenyl]-N-{3-[(tert-butylsulfonyl)methyl]phenyl}-5-fluoropyrimidin-2-amine], the IC50 against CDK2/CycE came out at 3100 nM; on CDK9/CycT1 [1], 29 nM; against CDK9/CycT1 [2], 80 nM.

For the compound `CS(=O)(=O)Cc1cccc(Nc2ncc(F)c(-c3cccc4c3OCCC4)n2)c1` [Example 9, 4-(3,4-Dihydro-2H-chromen-8-yl)-5-fluoro-N-{3-[(methylsulfonyl)methyl]phenyl}pyrimidin-2-amine], the IC50 in the experiment with HeLa cells (4 days, crystal violet) is 360 nM; in the experiment on HeLa-MaTu-ADR cells (setting [3]), 200 nM; with NCI-H460 cells (setting [4]) it was 340 nM; in the experiment on DU145 cells (DU145, 4 days, crystal violet), 320 nM; in the experiment with Caco-2 cells (setting [5]), 270 nM; with B16F10 cells (B16F10, 4 days, crystal violet), 340 nM. The same compound had an IC50 against CDK2/CycE of 300 nM.
